From patent publication US20250235456A1, “METHODS OF USE FOR AZA-QUINAZOLINE COMPOUNDS” (Iambic Therapeutics, Inc., priority 2024, published 2025)

What was measured:
Type in all cases: biochemical
[1] = target: T1, CDK4/Cyclin D1 (Homo sapiens (Human), UniProt P11802); assay: CDK4/Cyclin D1 Mobility Shift Assay (MSA); details: read-out: CDK4/CyclinD1 MSA IC50
Description: CDK4/Cyclin D1 Mobility Shift Assay (MSA) The purpose CDK4/Cyclin D1 assay is to evaluate the inhibition (% inhibition and IC50 values) in the presence of small molecule inhibitors by using a fluorescence based microfluidic mobility shift assay. CDK4/Cyclin D1 catalyzes the production of ADP from ATP that accompanies the phosphoryl transfer to the substrate peptide 5-FAM-Dyrktide (5-FAM-[…]) (Perkin Elmer Peptide 34). The mobility shift assay (MSA) electrophoretically separates the fluorescently labelled peptides (substrate and phosphorylated product) following the kinase reaction. Both substrate and product are measured, and the ratio of these values is used to generate % conversion of substrate to product by the LabChip EZ Reader. Typical reaction solutions contained 2% DMSO (+/−inhibitor), 10 mM MgCl2, 1 mM EGTA, 0.05% BSA, 2 mM DTT, 0.2 mM ATP, 0.01% Brig-35, 1.5 uM 5-FAM-Dyrktide, 2.5 nM CDK4/Cyclin D1 in 50 mM HEPES buffer at pH 7.5. The reaction was initiated with the addition of substrate solution, following a 30-minute pre-incubation of enzyme and inhibitor at 22° C. in the reaction mix. The reaction was stopped after 180 minutes by the addition of 75 μL of 500 mM EDTA and measured on a Perkin Elmer EZ reader instrument. IC50 determinations were made from a plot of the fractional velocity as a function of inhibitor concentration fit to the 4 parameters IC50 equation.

[2] = target: CDK6/Cyclin D3 (Homo sapiens (Human), UniProt Q00534); assay: CDK6/Cyclin D3 ADP-Glo Kinase Assay; details: read-out: CDK6/CyclinD3 IC50
Method in brief: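 Commercial CDK6/Cyclin D3 pre-incubated with inhibitor 30 min at room temperature, then reaction started with ATP/substrate and run 90 min at room temperature. ADP formed measured by ADP-Glo luminescence; IC50 from fractional velocity vs inhibitor concentration fit to a 4-parameter equation.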

[3] = target: CDK1/Cyclin B1 (Homo sapiens (Human), UniProt P06493); assay: CDK1/Cyclin B1 ADP-Glo Kinase Assay
Method in brief: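 Purchased CDK1/Cyclin B1 was pre-incubated 30 min with inhibitor at room temperature, then reacted 90 min at room temperature after adding ATP-containing substrate. ADP formed was read by two-step ADP-Glo luminescence. IC50 came from a 4-parameter fit of fractional velocity versus inhibitor concentration.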

[4] = target: CDK2/Cyclin E1 full length (Homo sapiens (Human), UniProt P24941); assay: CDK2/Cyclin E1 Full length ADP-Glo Kinase Assay; details: read-out: CDK2/CyclinE1 IC50
Description: CDK2/Cyclin E1 Full length ADP-Glo Kinase Assay
The purpose of CDK2/Cyclin El assay is to evaluate the inhibition (% inhibition and IC50 values) of small molecule inhibitors by using a Luminescent based ADP-Glo assay. CDK2/Cyclin El full length catalyzes the production of ADP from ATP. ADP-Glo assay monitors ADP producing biochemical reactions. ADP-Glo is performed in 2 steps upon completion of kinase reaction: a combined termination of kinase reaction and depletion of remaining ATP in the first step, and conversion of generated ADP to ATP and the newly produced ATP to light output using luciferase/luciferin reaction in the second step. The luminescent signal generated is proportional to the ADP concentration produced and is correlated with the kinase activity. CDK2/Cyclin E1 was purchased from Eurofins (Cat 14-475M). […] The assay was initiated with the addition of ATP-containing substrate solution, following a 30-minute pre-incubation of enzyme and inhibitor at room temperature in the reaction mixture. The reaction was stopped after 90 minutes at room temperature by the addition of 10 μL of ADP-GLO Reagent. After a 90 minute incubation, 20 uL of Kinase Detection Reagent was added. Samples were incubated for 40 minutes, after which plate well luminescence was measured on a Envision microplate reader. The IC50 determinations were made from a plot of the fractional velocity as a function of inhibitor concentration fit to the 4 parameters IC50 equation.

[5] = target: T1, CDK4/Cyclin D1; assay: CDK4/Cyclin D1 CHEF Assay; details: AQT; read-out: CDK4/CyclinD1 AQT IC50
Method in brief: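 Peptide substrate AQT0258 carries a Sox fluorophore whose Mg(II)-dependent fluorescence (ex 360/em 485 nm) rises on phosphorylation. Enzyme and inhibitor pre-incubated 30 min at 22 °C, substrate added, reaction run 3 h at 22 °C. IC50 from 4-parameter fit of fractional velocity vs inhibitor concentration.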

T1 sequence (P11802 whole entry, species assumed): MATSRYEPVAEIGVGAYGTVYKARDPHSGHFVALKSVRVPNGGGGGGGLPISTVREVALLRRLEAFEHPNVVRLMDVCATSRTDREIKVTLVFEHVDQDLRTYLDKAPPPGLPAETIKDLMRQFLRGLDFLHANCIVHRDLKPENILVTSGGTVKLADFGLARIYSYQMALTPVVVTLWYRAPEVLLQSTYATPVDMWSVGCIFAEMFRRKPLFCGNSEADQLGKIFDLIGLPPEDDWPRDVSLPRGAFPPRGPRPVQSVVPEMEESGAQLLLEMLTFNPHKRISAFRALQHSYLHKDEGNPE
T1 sequence (P24385 whole entry partner, species assumed): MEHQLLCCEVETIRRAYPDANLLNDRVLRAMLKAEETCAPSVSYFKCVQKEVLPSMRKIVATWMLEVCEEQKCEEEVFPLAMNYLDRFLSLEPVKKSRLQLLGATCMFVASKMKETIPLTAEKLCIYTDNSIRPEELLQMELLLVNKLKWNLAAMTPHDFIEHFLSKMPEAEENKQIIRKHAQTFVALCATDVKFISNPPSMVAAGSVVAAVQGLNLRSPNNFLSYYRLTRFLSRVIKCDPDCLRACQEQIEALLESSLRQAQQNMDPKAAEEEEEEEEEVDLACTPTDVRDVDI
Chain of CDK6/Cyclin D3 (Q00534 whole entry): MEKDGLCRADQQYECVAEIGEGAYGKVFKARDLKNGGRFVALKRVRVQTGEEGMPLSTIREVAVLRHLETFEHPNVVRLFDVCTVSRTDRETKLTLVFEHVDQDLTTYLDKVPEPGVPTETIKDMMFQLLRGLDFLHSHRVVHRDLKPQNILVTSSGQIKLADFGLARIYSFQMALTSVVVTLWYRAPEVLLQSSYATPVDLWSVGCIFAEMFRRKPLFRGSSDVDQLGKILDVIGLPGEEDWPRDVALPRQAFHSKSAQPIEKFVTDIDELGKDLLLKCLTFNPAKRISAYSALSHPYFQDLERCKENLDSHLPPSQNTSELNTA
Chain of CDK6/Cyclin D3 (P30281 whole entry partner): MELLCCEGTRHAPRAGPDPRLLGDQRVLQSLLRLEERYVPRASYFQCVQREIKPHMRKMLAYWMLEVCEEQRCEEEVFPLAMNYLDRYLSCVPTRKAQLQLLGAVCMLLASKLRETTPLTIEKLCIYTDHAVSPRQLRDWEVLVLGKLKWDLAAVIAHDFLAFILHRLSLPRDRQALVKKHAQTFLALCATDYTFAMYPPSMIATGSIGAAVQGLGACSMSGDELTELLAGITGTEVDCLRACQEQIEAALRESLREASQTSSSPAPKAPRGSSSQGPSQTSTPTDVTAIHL
Chain of CDK1/Cyclin B1 (P06493 whole entry): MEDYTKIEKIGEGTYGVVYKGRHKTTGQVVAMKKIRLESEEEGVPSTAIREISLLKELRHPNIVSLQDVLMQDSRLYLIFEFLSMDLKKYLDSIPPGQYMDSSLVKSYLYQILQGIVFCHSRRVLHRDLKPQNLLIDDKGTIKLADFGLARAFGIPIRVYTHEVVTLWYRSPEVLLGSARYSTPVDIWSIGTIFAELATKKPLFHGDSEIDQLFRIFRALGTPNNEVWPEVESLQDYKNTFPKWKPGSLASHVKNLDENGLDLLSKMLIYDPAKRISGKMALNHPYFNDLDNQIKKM
Chain of CDK1/Cyclin B1 (P14635 whole entry partner): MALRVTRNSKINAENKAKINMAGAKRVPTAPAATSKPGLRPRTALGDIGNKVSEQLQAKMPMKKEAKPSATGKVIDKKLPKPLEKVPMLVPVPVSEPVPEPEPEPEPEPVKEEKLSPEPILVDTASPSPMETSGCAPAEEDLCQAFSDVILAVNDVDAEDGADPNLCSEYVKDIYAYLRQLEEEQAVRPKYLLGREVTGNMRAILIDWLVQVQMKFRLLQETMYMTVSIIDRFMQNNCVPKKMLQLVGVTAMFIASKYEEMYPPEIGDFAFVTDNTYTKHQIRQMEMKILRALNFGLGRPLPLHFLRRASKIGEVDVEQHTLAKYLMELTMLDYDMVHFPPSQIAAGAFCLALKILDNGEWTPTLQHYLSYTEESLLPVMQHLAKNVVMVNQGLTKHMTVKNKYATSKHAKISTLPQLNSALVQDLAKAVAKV

Row | Structure (SMILES) | IC50 [1] [µM] | IC50 [2] [µM] | IC50 [3] [µM] | IC50 [4] [µM] | IC50 [5] [µM]
1 | CS(=O)(=O)N1CCC(Nc2ncc3ccnc(N4CCN(C5CC5)CC4)c3n2)CC1 [Compound 1, 8-(4-cyclopropylpiperazin-1-yl)-N-(1-(methylsulfonyl)piperidin-4-yl)pyrido[3,4-d]pyrimidin-2-amine] | < 0.2 | 0.2 to 0.5 | – | – | –
2 | CS(=O)(=O)N1CCC(Nc2ncc3ccnc(N4CCC5(C4)CC5(F)F)c3n2)CC1 (stereo not drawn) [Compound 3, 8-(1,1-difluoro-5-azaspiro[2.4]heptan-5-yl)-N-(1-(methylsulfonyl)piperidin-4-yl)pyrido[3,4-d]pyrimidin-2-amine] | < 0.2 | < 0.2 | < 0.2 | – | –
3 | CN1CCN(c2ccc(Nc3ncc4ccnc(N5CCC6(C5)CC(F)(F)C6)c4n3)cc2)CC1 [Compound 4, 8-(2,2-difluoro-6-azaspiro[3.4]octan-6-yl)-N-(4-(4-methylpiperazin-1-yl)phenyl)pyrido [3,4-d]pyrimidin-2-amine] | < 0.2 | < 0.2 | 0.2 to 0.5 | – | –
4 | CS(=O)(=O)N1CCC(Nc2ncc3ccnc(N4CCC(C#N)(C5CC5)C4)c3n2)CC1 (stereo not drawn) [Compound 5, 3-cyclopropyl-1-(2-((1-(methylsulfonyl)piperidin-4-yl)amino)pyrido[3,4-d]pyrimidin-8-yl)pyrrolidine-3-carbonitrile] | < 0.2 | < 0.2 | < 0.2 | – | –
5 | CS(=O)(=O)N1CCC(Nc2ncc3ccnc(N4CCC5(CCOCC5)C4)c3n2)CC1 [Compound 7, N-(1-(methylsulfonyl)piperidin-4-yl)-8-(8-oxa-2-azaspiro[4.5]decan-2-yl)pyrido[3,4-d]pyrimidin-2-amine] | < 0.2 | < 0.2 | 0.2 to 0.5 | – | –
6 | CS(=O)(=O)N1CCC(Nc2ncc3ccnc(N4CC5(C4)CN(C4CC4)C5)c3n2)CC1 [Compound 8, 8-(6-cyclopropyl-2,6-diazaspiro[3.3]heptan-2-yl)-N-(1-(methylsulfonyl)piperidin-4-yl)pyrido[3,4-d]pyrimidin-2-amine] | < 0.2 | – | 0.2 to 0.5 | – | –
7 | CN1CCN(c2ccc(Nc3ncc4ccnc(N5CCC6(CCN(S(C)(=O)=O)C6)C5)c4n3)cc2)CC1 (stereo not drawn) [Compound 9, N-(4-(4-methylpiperazin-1-yl)phenyl)-8-(7-(methylsulfonyl)-2,7-diazaspiro[4.4]nonan-2-yl) pyrido[3,4-d]pyrimidin-2-amine] | < 0.2 | – | 0.2 to 0.5 | – | –
8 | CN1CCn2nc(Nc3ncc4ccnc(N5CCC6(C5)CC6(F)F)c4n3)cc2C1 (stereo not drawn) [Compound 10, 8-(1,1-difluoro-5-azaspiro[2.4]heptan-5-yl)-N-(5-methyl-4,5,6,7-tetrahydropyrazolo [1,5-a]pyrazin-2-yl)pyrido[3,4-d]pyrimidin-2-amine] | < 0.2 | < 0.2 | > 2 | – | –
9 | CN1CCC(n2cc(Nc3ncc4ccnc(N5CCC6(C5)CC6(F)F)c4n3)cn2)CC1 (stereo not drawn) [Compound 20, 8-(1,1-difluoro-5-azaspiro[2.4]heptan-5-yl)-N-(1-(1-methylpiperidin-4-yl)-1H-pyrazol-4-yl)pyrido[3,4-d]pyrimidin-2-amine] | < 0.2 | < 0.2 | – | – | –
10 | Cc1cc2cnc(Nc3cnn(C4CC5(C4)CN(C)C5)c3)nc2c(N2CC3(C2)CN(S(C)(=O)=O)C3)n1 [Compound 26, 6-methyl-N-(1-(2-methyl-2-azaspiro[3.3]heptan-6-yl)-1H-pyrazol-4-yl)-8-(6-(methylsulfonyl)-2,6-diazaspiro[3.3]heptan-2-yl) pyrido[3,4-d]pyrimidin-2-amine] | – | – | > 2 | 0.2 to 0.5 | 0.2 to 0.5
11 | Cc1cc2cnc(Nc3ccc4c(c3)CN(C3CN(S(C)(=O)=O)C3)C4)nc2c(N2CC3(CN(C)C3)C2)n1 [Compound 29, 6-methyl-8-(6-methyl-2,6-diazaspiro[3.3]heptan-2-yl)-N-(2-(1-(methylsulfonyl)azetidin-3-yl)isoindolin-5-yl)pyrido[3,4-d]pyrimidin-2-amine] | – | – | > 2 | 0.2 to 0.5 | < 0.2
12 | Cc1cc2cnc(Nc3ccc(N4CC5(CN(C)C5)C4)cc3)nc2c(N2CC3(C2)CS(=O)(=O)C3)n1 [Compound 30, 6-(6-methyl-2-((4-(6-methyl-2,6-diazaspiro[3.3]heptan-2-yl)phenyl)amino)pyrido[3,4-d]pyrimidin-8-yl)-2-thia-6-azaspiro[3.3]heptane 2,2-dioxide] | – | 0.2 to 0.5 | > 2 | 0.2 to 0.5 | 0.2 to 0.5
13 | Cc1cc2cnc(Nc3cnn(C4CC5(C4)CN(C)C5)c3)nc2c(N2CCC3(C2)CC3(F)F)n1 (stereo not drawn) [Compound 33, 8-(1,1-difluoro-5-azaspiro[2.4]heptan-5-yl)-6-methyl-N-(1-(2-methyl-2-azaspiro[3.3]heptan-6-yl)-1H-pyrazol-4-yl)pyrido[3,4-d]pyrimidin-2-amine] | – | < 0.2 | – | 0.2 to 0.5 | < 0.2
14 | Cc1cc2cnc(Nc3ccc(N4CC5(CN(C)C5)C4)cc3)nc2c(N2CCC3(CCOCC3)C2)n1 [Compound 35, 6-methyl-N-(4-(6-methyl-2,6-diazaspiro[3.3]heptan-2-yl)phenyl)-8-(8-oxa-2-azaspiro[4.5]decan-2-yl)pyrido[3,4-d]pyrimidin-2-amine] | – | < 0.2 | > 2 | 0.2 to 0.5 | < 0.2
15 | Cc1cc2cnc(Nc3cc4c(cc3F)CN(S(C)(=O)=O)C4)nc2c(N2CC3(CNC3)C2)n1 [Compound 37, N-(6-fluoro-2-(methylsulfonyl)isoindolin-5-yl)-6-methyl-8-(2,6-diazaspiro[3.3]heptan-2-yl) pyrido[3,4-d]pyrimidin-2-amine] | – | > 2 | > 2 | 0.2 to 0.5 | > 2
16 | Cc1cc2cnc(NC3CCN(S(C)(=O)=O)CC3)nc2c(N2CC3(C2)CN(C2CC2)C3)n1 [Compound 42, 8-(6-cyclopropyl-2,6-diazaspiro[3.3]heptan-2-yl)-6-methyl-N-(1-(methylsulfonyl)piperidin-4-yl)pyrido[3,4-d]pyrimidin-2-amine] | – | 0.5 to 2 | > 2 | < 0.2 | < 0.2
17 | O=S(=O)(C1CC1)N1CCC(Nc2ncc3cc(C(F)F)nc(N4CC5(CCNC5)C4)c3n2)CC1 [Compound 46, 1-(cyclopropanesulfonyl)-N-(8-{2,6-diazaspiro[3.4]octan-2-yl}-6-(difluoromethyl)pyrido[3,4-d]pyrimidin-2-yl)piperidin-4-amine] | – | < 0.2 | < 0.2 | < 0.2 | < 0.2
18 | Cc1cc2cnc(NC3CCN(S(C)(=O)=O)CC3)nc2c(N2CC3(CN(C)C[C@@H]3F)C2)n1 [Compound 103, (R)-8-(8-fluoro-6-methyl-2,6-diazaspiro[3.4]octan-2-yl)-6-methyl-N-(1-(methylsulfonyl)piperidin-4-yl)pyrido[3,4-d]pyrimidin-2-amine] | – | < 0.2 | 0.5 to 2 | < 0.2 | < 0.2
19 | Cc1cc2cnc(NC3CCN(S(C)(=O)=O)CC3)nc2c(N2CC3(CN(C)C[C@H]3F)C2)n1 [Compound 104, (S)-8-(8-fluoro-6-methyl-2,6-diazaspiro[3.4]octan-2-yl)-6-methyl-N-(1-(methylsulfonyl)piperidin-4-yl)pyrido[3,4-d]pyrimidin-2-amine] | – | 0.2 to 0.5 | 0.5 to 2 | < 0.2 | < 0.2
